Laboratory results taken from patent US20130324404A1, “1, 8 -DIAZASPIRO [4.5] DECANE- 2, 4 -DIONE DERIVATIVES USEFUL AS PESTICIDES” (SYNGENTA PARTICIPATIONS AG, priority 2010, published 2013).

Key:
[1] = tested on: Myzus persicae (green peach aphid); assay: Example B2: Activity against Myzus persicae, mixed population, systemic/feeding activity, curative (pea seedlings); assay type: in vivo; details: 144 h, roots of infested pea seedlings in test solution, 6 days, systemic
Source text: (§1) Activity Against Myzus persicae (Green Peach Aphid)
(Mixed Population, Systemic/Feeding Activity, Curative)
Roots of pea seedlings, infested with an aphid population of mixed ages, are placed directly in the test solutions. 6 days after introduction, samples are checked for mortality and special effects on the plant.

[2] = tested on: Myzus persicae (green peach aphid); assay: Example B5: Activity against Myzus persicae, mixed population, feeding/residual contact activity (infested cabbage plants, spray chamber); assay type: in vivo; details: 144 h, infested cabbage plants sprayed, 6 days after treatment
Procedure: as §1
(§2) (Mixed Population, Feeding/Residual Contact Activity, Plant Damage Evaluation)
(§3) Cabbage plants infested with a mixed population of Myzus persicae are treated with diluted test solutions of the compounds in a spray chamber. 6 days after treatment, samples are checked for mortality and for plant damage (phytotoxicity), visual assessment being made using a 0-100% rating scale (100%=total damage to plant; 0%=no damage to plant). In this test, compounds listed in the tables above show good activity against Myzus persicae and acceptable plant compatibility. For example compounds P1.1, P1.2, P1.3, P1.4, P1.6, P1.7, P1.8, P1.9, P1.10, P1.11 and P1.12 show an activity of greater or equal to 80% against Myzus persicae and damage to cabbage plants less or equal to 10% at a concentration of 200 ppm.

cabbage plants = details: in vivo, 6 days, 200 ppm
Procedure: as §1, §2, §3

[3] = tested on: Myzus persicae (green peach aphid); assay: Example B1: Activity against Myzus persicae, mixed population, feeding/residual contact activity, preventive (sunflower leaf discs); assay type: in vivo; details: foliar, 144 h, sprayed sunflower leaf discs, 6 days incubation
Procedure: as §1
(§4) (Mixed Population, Feeding/Residual Contact Activity, Preventive)
Sunflower leaf discs are placed on agar in a 24-well microtiter plate and sprayed with test solutions. After drying, the leaf discs are infested with an aphid population of mixed ages. After an incubation period of 6 days, samples are checked for mortality and special effects (e.g. phytotoxicity).

[4] = tested on: Tetranychus urticae (two-spotted spider mite); assay: whole plant or invertebrate; assay type: in vivo; details: foliar, 192 h, read-out: activity (egg, larval and adult mortality) against Tetranychus urticae
Source text: Activity Against Tetranychus urticae (Two-Spotted Spider Mite)
as §4
Bean leaf discs on agar in 24-well microtiter plates are sprayed with test solutions. After drying, the leaf discs are infested with mite populations of mixed ages. 8 days later, discs are checked for egg mortality, larval mortality, and adult mortality.

[5] = tested on: Thrips tabaci (onion thrips); assay: Example B3: Activity against Thrips tabaci, mixed population, feeding/residual contact activity, preventive (sunflower leaf discs); assay type: in vivo; details: foliar, 144 h, sprayed sunflower leaf discs, 6 days incubation
Procedure: Activity Against Thrips tabaci (Onion Thrips)
as §4
Sunflower leaf discs are placed on agar in a 24-well microtiter plate and sprayed with test solutions. After drying, the leaf discs are infested with a thrips population of mixed ages. After an incubation period of 6 days, samples are checked for mortality and special effects (e.g. phytotoxicity).

Row | Structure (SMILES) | melting point | mortality at 200 ppm [2] [%] | damage to cabbage plants (phytotoxicity), 0-100% rating scale (cabbage plants) [%] | other results
1 | CON1CCC2(CC1)C(=O)C(Cl)(c1c(C)cc(C)cc1C)C(=O)N2OC1CCOC1 (centres unmarked) [Compound P1.11] | – | ≥ 80 | ≤ 10 | mortality at 400 ppm [1]: > 80%
2 | CON1CCC2(CC1)C(O)=C(c1c(C)cc(C)cc1C)C(=O)N2OCC1CCCCC1 [Compound P2.96] | 169 to 172 °C | – | – | –
3 | COCON1C(=O)C(c2c(C)cc(-c3ccc(Cl)cc3)cc2C)=C(O)C12CCN(OC)CC2 [Compound P2.15, 3-(4′-Chloro-3,5-dimethyl-biphenyl-4-yl)-4-hydroxy-8-methoxy-1-methoxymethoxy-1,8-diaza-spiro[4.5]dec-3-en-2-one] | 128 °C (dec.) | – | – | –
4 | CON1CCC2(CC1)C(O)=C(c1c(C)cc(C)cc1C)C(=O)N2OCCOC1CCCCO1 (centres unmarked) [Compound P2.22] | 135 to 137 °C | – | – | –
5 | CON1CCC2(CC1)C(=O)C(Cl)(c1c(C)cc(C)cc1C)C(=O)N2OCC1CCOCC1 (centres unmarked) [Compound P1.10] | – | ≥ 80 | ≤ 10 | mortality at 400 ppm [3]: > 80%; mortality at 400 ppm [1]: > 80%
6 | CON1CCC2(CC1)C(=O)C(Cl)(c1c(C)cc(C)cc1C)C(=O)N2OCC1CCOC1 (centres unmarked) [Compound P1.9] | – | ≥ 80 | ≤ 10 | mortality at 400 ppm [3]: > 80%; mortality at 400 ppm [1]: > 80%
7 | CON1CCC2(CC1)C(=O)C(Cl)(c1cc(Br)c(C)cc1C)C(=O)N2OC (centres unmarked) [Compound P1.12] | – | ≥ 80 | ≤ 10 | –
8 | COCCON1C(=O)C(Cl)(c2cc(C)c(C)cc2Cl)C(=O)C12CCN(OC)CC2 (centres unmarked) [Compound P1.7, 3-Chloro-3-(2-chloro-4,5-dimethyl-phenyl)-8-methoxy-1-(2-methoxy-ethoxy)-1,8-diaza-spiro[4.5]decane-2,4-dione] | – | ≥ 80 | ≤ 10 | mortality at 400 ppm [3]: > 80%; mortality at 400 ppm [1]: > 80%
9 | CON1CCC2(CC1)C(=O)C(Cl)(c1c(C)cc(C)cc1C)C(=O)N2OCC1CCCC1 (centres unmarked) [Compound P1.4] | – | ≥ 80 | ≤ 10 | –
10 | COCCON1C(=O)C(Cl)(c2cc(-c3ccc(Cl)cc3)c(F)cc2C)C(=O)C12CCN(OC)CC2 (centres unmarked) [Compound P1.13] | – | – | – | mortality at 400 ppm [4]: > 80%
11 | CCON1C(=O)C(Cl)(c2c(C)cc(C)cc2C)C(=O)C12CCN(OC)CC2 (centres unmarked) [Compound P1.3] | – | ≥ 80 | ≤ 10 | mortality at 400 ppm [3]: > 80%; mortality at 400 ppm [1]: > 80%; mortality at 400 ppm [5]: > 80%
12 | COCCON1C(=O)C(Cl)(c2c(C)cc(C)cc2C)C(=O)C12CCN(OC)CC2 (centres unmarked) [Compound P1.2] | – | ≥ 80 | ≤ 10 | mortality at 400 ppm [3]: > 80%; mortality at 400 ppm [1]: > 80%
13 | CON1CCC2(CC1)C(=O)C(c1c(C)ccc(Cl)c1C)([N+](=O)[O-])C(=O)N2OC (centres unmarked) [Compound P1.8, 3-(3-Chloro-2,6-dimethyl-phenyl)-1,8-dimethoxy-3-nitro-1,8-diaza-spiro[4.5]decane-2,4-dione] | – | ≥ 80 | ≤ 10 | –
14 | CON1CCC2(CC1)C(=O)C(Cl)(c1c(C)cc(C)cc1C)C(=O)N2OC1CCCCC1 (centres unmarked) [Compound P1.6] | – | ≥ 80 | ≤ 10 | –
15 | COCON1C(=O)C(Cl)(c2cc(C)ccc2C)C(=O)C12CCN(OC)CC2 (centres unmarked) [Compound P1.1, 3-Chloro-3-(2,5-dimethyl-phenyl)-8-methoxy-1-methoxymethoxy-1,8-diaza-spiro[4.5]decane-2,4-dione] | – | ≥ 80 | ≤ 10 | mortality at 400 ppm [3]: > 80%; mortality at 400 ppm [1]: > 80%
16 | COCON1C(=O)C(c2c(F)ccc(C)c2Cl)=C(O)C12CCN(OC)CC2 [Compound P2.60] | 155 to 158 °C | – | – | –

Further lines, with some results ahead:

Row | melting point | Structure (SMILES) | mortality at 200 ppm [2] [%] | damage to cabbage plants (phytotoxicity), 0-100% rating scale (cabbage plants) [%] | other results
17 | 161 to 164 °C | COCCON1C(=O)C(c2c(C)cc(Cl)cc2C)=C(O)C12CCN(OC)CC2 [Compound P2.101] | – | – | –
18 | 176 to 178 °C | COCON1C(=O)C(c2c(C)cc(Cl)cc2C)=C(O)C12CCN(OC)CC2 [Compound P2.104] | – | – | –
19 | 88 to 92 °C | CON1CCC2(CC1)C(O)=C(c1c(C)cc(Cl)cc1C)C(=O)N2OC [Compound P2.102] | – | – | –
20 | 86 to 87 °C | CON1CCC2(CC1)C(O)=C(c1cc(Br)c(C)cc1C)C(=O)N2OC [Compound P2.75] | – | – | –
21 | 63 to 64 °C | COCCON1C(=O)C(c2cc(Br)c(C)cc2C)=C(O)C12CCN(OC)CC2 [Compound P2.73] | – | – | –
22 | 228 to 231 °C | CON1CCC2(CC1)C(O)=C(c1c(C)cc(Cl)cc1C)C(=O)N2O [Compound P2.103, 3-(4-Chloro-2,6-dimethyl-phenyl)-1,4-dihydroxy-8-methoxy-1,8-diaza-spiro[4.5]dec-3-en-2-one] | – | – | –
23 | 64 to 67 °C | COCON1C(=O)C(c2cc(Br)c(F)cc2C)=C(O)C12CCN(OC)CC2 [Compound P2.89] | – | – | –
24 | 71 to 74 °C | COCCON1C(=O)C(c2cc(Br)c(F)cc2C)=C(O)C12CCN(OC)CC2 [Compound P2.87] | – | – | –
25 | 137 to 139 °C | CON1CCC2(CC1)C(O)=C(c1c(C)cc(Cl)cc1C)C(=O)N2OC1CCCO1 (centres unmarked) [Compound P2.105] | – | – | –
